From patent US7514452B2, “2-furancarboxylic acid hydrazides and pharmaceutical compositions containing the same” (Dainippon Pharmaceutical Co., Ltd, priority 2002, dated 2009)

Columns and labels:
glucagon receptor [1] = target: glucagon receptor (Mus musculus, UniProt Q61606); assay: Experiment for glucagon binding inhibition, mouse hepatic membrane (125I-glucagon); settings: male ddY mouse hepatic membrane, 125I-glucagon 50 pM, 25° C. for 30 minutes; read-out: Glucagon binding inhibitory activity IC50 (nM) Mouse
Procedure: (§1) The preparation of membrane from mouse and rat livers was carried out according to the method described in Bioorg. Med. Chem. Lett. 1992, 12, 915-918 in this experiment and ^125I-glucagon binding activity was measured with these membranes as glucagon receptor's samples. Livers were removed from male SD rats (about 250 g body weight per rat) and male ddY mice (about 30 g body weight per mouse). […] The homogenate was centrifuged for 15 minutes at 30,000×g. […] The precipitaion thus obtained was used as a hepatic membrane sample. […] The mixture was incubated at 25° C. for 30 minutes. […] The filter was washed 3 times with 50 mM Tris-HCl buffer (pH 7.2), and the radioactivity of the filter was measured by a γ counter (ARC-360, Aloka Co., Ltd.). […] Each experiment was carried out in duplicate. […] The concentration at 50% inhibition of binding (IC50) was calculated using a pseudo Hill plot.

glucagon receptor [2] = target: glucagon receptor (Rattus norvegicus, UniProt P30082); assay: Experiment for glucagon binding inhibition, rat hepatic membrane (125I-glucagon); settings: male SD rat hepatic membrane, 125I-glucagon 50 pM, 25° C. for 30 minutes; read-out: Glucagon binding inhibitory activity IC50 (nM) Rat
Procedure: as §1

Sequence of glucagon receptor (Mus musculus, UniProt Q61606) (Q61606 27-485): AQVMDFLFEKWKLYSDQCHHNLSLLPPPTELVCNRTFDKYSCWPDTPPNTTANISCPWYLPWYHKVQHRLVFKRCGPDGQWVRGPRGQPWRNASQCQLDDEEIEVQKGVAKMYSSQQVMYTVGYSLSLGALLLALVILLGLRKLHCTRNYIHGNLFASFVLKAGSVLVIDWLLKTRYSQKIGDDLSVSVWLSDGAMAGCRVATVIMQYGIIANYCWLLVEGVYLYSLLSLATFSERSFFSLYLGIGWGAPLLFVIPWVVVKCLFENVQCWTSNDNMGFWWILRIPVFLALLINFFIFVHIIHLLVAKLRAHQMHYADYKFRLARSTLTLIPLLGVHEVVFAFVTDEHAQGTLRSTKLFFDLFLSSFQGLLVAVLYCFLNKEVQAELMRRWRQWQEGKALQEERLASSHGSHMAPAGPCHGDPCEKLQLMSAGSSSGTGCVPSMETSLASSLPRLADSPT
Sequence of glucagon receptor (Rattus norvegicus, UniProt P30082) (P30082 27-485): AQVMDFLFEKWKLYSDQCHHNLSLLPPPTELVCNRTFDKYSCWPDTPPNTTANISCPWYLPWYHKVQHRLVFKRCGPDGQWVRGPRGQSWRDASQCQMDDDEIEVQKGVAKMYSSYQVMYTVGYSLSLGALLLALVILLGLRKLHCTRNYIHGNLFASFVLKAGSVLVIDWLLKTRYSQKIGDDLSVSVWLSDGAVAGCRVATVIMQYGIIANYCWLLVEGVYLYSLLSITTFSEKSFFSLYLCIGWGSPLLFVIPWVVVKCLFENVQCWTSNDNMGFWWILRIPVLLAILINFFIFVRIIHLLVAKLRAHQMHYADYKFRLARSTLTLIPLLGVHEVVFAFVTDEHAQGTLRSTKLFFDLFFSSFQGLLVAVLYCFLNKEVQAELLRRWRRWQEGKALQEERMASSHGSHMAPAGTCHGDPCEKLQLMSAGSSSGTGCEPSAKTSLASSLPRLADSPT

Compound	melting point [°C]	IC50 (glucagon receptor [1]) [nM]	IC50 (glucagon receptor [2]) [nM]
CC(=O)N(Cc1ccccc1)c1cccc(-c2ccoc2C(=O)NNC(=O)c2ccc(O)c(C#N)c2)c1	221 to 222		
N#Cc1cc(C(=O)NNC(=O)c2occc2-c2cccc(NC(=O)OCc3ccccc3)c2)ccc1O	179 to 181		
O=C(NNC(=O)c1occc1-c1ccncc1)c1ccc(O)c([N+](=O)[O-])c1	237		
Cc1cc(C)c(C)c(COc2cccc(-c3coc(C(=O)NNC(=O)c4ccc(O)c([N+](=O)[O-])c4)c3-c3cccc(OCc4c(C)c(C)cc(C)c4C)c3)c2)c1C	174 to 175		
COc1ccc(C(=O)NNC(=O)c2occ(-c3ccccc3)c2-c2ccccc2)cc1C#N	220 to 225		
COc1ccc(C(=O)NNC(=O)c2occ(-c3ccccc3)c2-c2ccccc2)cc1[N+](=O)[O-]	150 to 158		
Cc1ccccc1COc1cccc(-c2ccoc2C(=O)NNC(=O)c2ccc(O)c(C#N)c2)c1	178 to 180		
CS(=O)(=O)Oc1cccc(-c2ccoc2C(=O)NNC(=O)c2ccc(O)c([N+](=O)[O-])c2)c1	170 to 171		
CC(C)(C)OC(=O)c1cc(C(=O)NNC(=O)c2occc2-c2ccccc2)ccc1O	147 to 154		
O=C(NNC(=O)c1occc1-c1ccccc1)c1ccc(O)c(C(=O)O)c1	250 to 251		
O=C(NNC(=O)c1occ(-c2ccccc2)c1-c1ccccc1)c1cccs1	132 to 135		
Cc1ccc(-c2ccoc2C(=O)NNC(=O)c2ccc(O)c(Cl)c2)cc1	240 to 242		
O=C(NNC(=O)c1occ(-c2ccccc2)c1-c1ccccc1)c1ccncc1	115 to 120		
O=C(NNC(=O)c1occ(-c2ccccc2)c1-c1ccccc1)c1ccccn1	190 to 192		
COc1ccc(C(=O)NNC(=O)c2occ(-c3ccccc3)c2-c2ccccc2)cc1Cl	203 to 207		
O=C(NNC(=O)c1occ(-c2ccccc2)c1-c1ccccc1)c1ccc(O)c(Cl)c1	197 to 199		
C=Cc1coc(C(=O)NNC(=O)c2ccc(O)c(C#N)c2)c1-c1ccccc1	175 to 177		
CCc1c(-c2ccccc2)coc1C(=O)NNC(=O)c1ccc(O)c(C#N)c1	190 to 192		
CCc1coc(C(=O)NNC(=O)c2ccc(O)c(C#N)c2)c1-c1ccccc1	186 to 188		

Compound	melting point [°C]	IC50 (glucagon receptor [1]) [nM]	IC50 (glucagon receptor [2]) [nM]
COc1ccc(C(=O)NNC(=O)c2occ(-c3ccccc3)c2-c2ccccc2)cc1OC	181 to 184		
COc1ccc(C(=O)NNC(=O)c2occ(-c3ccccc3)c2-c2ccccc2)c(OC)c1	240 to 242		
COc1c(Cl)cc(C(=O)NNC(=O)c2occ(-c3ccccc3)c2-c2ccccc2)cc1Cl	229 to 230		
O=C(NNC(=O)c1occ(-c2ccccc2)c1-c1ccccc1)c1ccc(O)c(O)c1	242 to 244		
O=C(NNC(=O)c1occ(-c2ccccc2)c1-c1ccccc1)c1ccc(O)cc1O	285 to 288		
O=C(NNC(=O)c1occ(-c2ccccc2)c1-c1ccccc1)c1cc(Cl)c(O)c(Cl)c1	261 to 263		
O=C(NNC(=O)c1occ(-c2ccccc2)c1-c1ccccc1)c1ccc(O)c(-c2ccccc2)c1	217 to 218		
N#Cc1cc(C(=O)NNC(=O)c2occ(-c3ccc(F)cc3)c2-c2ccc(F)cc2)ccc1O [Example 45, 3,4-Bis(4-fluorophenyl)-2-furancarboxylic acid 2-(3-cyano-4-hydroxybenzoyl)hydrazide]	243 to 245	120	220
CCCCOc1cccc(-c2ccoc2C(=O)NNC(=O)c2ccc(O)c(C#N)c2)c1 [Example 107, 3-(3-Butoxyphenyl)-2-furancarboxylic acid 2-(3-cyano-4-hydroxybenzoyl)hydrazide]	186 to 188	360	140
Cc1cc(C)c(C)c(COc2ccc(-c3ccoc3C(=O)NNC(=O)c3ccc(O)c([N+](=O)[O-])c3)cc2)c1C [Example 113, 3-[4-(2,3,5,6-Tetramethylbenzyloxy)phenyl]-2-furancarboxylic acid 2-(4-hydroxy-3-nitrobenzoyl)hydrazide]	203 to 204	43	28
Cc1ccccc1COc1cccc(-c2ccoc2C(=O)NNC(=O)c2ccc(O)c([N+](=O)[O-])c2)c1 [Example 119, 3-[3-(2-methylbenzyloxy)phenyl]-2-furancarboxylic acid 2-(4-hydroxy-3-nitrobenzoyl)hydrazide]	114 to 115	9.6	16
CS(=O)(=O)c1ccc(COc2cccc(-c3ccoc3C(=O)NNC(=O)c3ccc(O)c([N+](=O)[O-])c3)c2)cc1 [Example 120, 3-[3-(4-Methylsulfonylbenzyloxy)phenyl]-2-furancarboxylic acid 2-(4-hydroxy-3-nitrobenzoyl)hydrazide]	114 to 117	27	37
Cc1cccc(COc2cccc(-c3ccoc3C(=O)NNC(=O)c3ccc(O)c([N+](=O)[O-])c3)c2)c1 [Example 123, 3-[3-(3-Methylbenzyloxy)phenyl]-2-furancarboxylic acid 2-(4-hydroxy-3-nitrobenzoyl)hydrazide]	144 to 145	65	33
Cc1ccc(COc2cccc(-c3ccoc3C(=O)NNC(=O)c3ccc(O)c([N+](=O)[O-])c3)c2)cc1 [Example 126, 3-[3-(4-Methylbenzyloxy)phenyl]-2-furancarboxylic acid 2-(4-hydroxy-3-nitrobenzoyl)hydrazide]	159 to 161	15	14
Cc1ccc(C)c(COc2cccc(-c3ccoc3C(=O)NNC(=O)c3ccc(O)c([N+](=O)[O-])c3)c2)c1 [Example 127, 3-[3-(2,5-Dimethylbenzyloxy)phenyl]-2-furancarboxylic acid 2-(4-hydroxy-3-nitrobenzoyl)hydrazide]	131 to 132	7.8	8.6
Cc1ccc(COc2cccc(-c3ccoc3C(=O)NNC(=O)c3ccc(O)c([N+](=O)[O-])c3)c2)c(C)c1 [Example 128, 3-[3-(2,4-Dimethylbenzyloxy)phenyl]-2-furancarboxylic acid 2-(4-hydroxy-3-nitrobenzoyl)hydrazide]	172 to 173	2.8	3.4
Cc1ccc(COc2cccc(-c3ccoc3C(=O)NNC(=O)c3ccc(O)c([N+](=O)[O-])c3)c2)cc1C [Example 129, 3-[3-(3,4-Dimethylbenzyloxy)phenyl]-2-furancarboxylic acid 2-(4-hydroxy-3-nitrobenzoyl)hydrazide]	157 to 162	6.1	5.2
CS(=O)(=O)Nc1ccccc1COc1cccc(-c2ccoc2C(=O)NNC(=O)c2ccc(O)c([N+](=O)[O-])c2)c1 [Example 138, 3-[3-(2-Methylsulfonylaminobenzyloxy)phenyl]-2-furancarboxylic acid 2-(4-hydroxy-3-nitrobenzoyl)hydrazide]		23	15
CC(=O)Nc1ccccc1COc1cccc(-c2ccoc2C(=O)NNC(=O)c2ccc(O)c([N+](=O)[O-])c2)c1 [Example 179, 3-[3-(2-Acetylaminobenzyloxy)phenyl]-2-furancarboxylic acid 2-(4-hydroxy-3-nitrobenzoyl)hydrazide]		28	63
